Common to all, as to details: normalized on Arabidopsis wild-type HPPD
In assay [1] the test system is Chlamydomonas HPPD1. Description: HPPD activity assay, Chlamydomonas HPPD1. It is filed as biochemical, Chlamydomonas reinhardtii. As for the experimental part: (§1) HPPD produces homogentisic acid and CO2 from 4-hydroxyphenylpyruvate (4-HPP) and O2. The activity assay for HPPD is based on the analysis of homogentisic acid by reversed phase HPLC.
(§2) The assay mixture can contain 150 mM potassium phosphate buffer pH 7.0, 50 mM L-ascorbic acid, 1 μM FeSO4 and 7 μg of purified enzyme in a total volume of 1 ml.
(§3) Inhibitors are dissolved in DMSO (dimethylsulfoxide) to a concentration of 20 mM or 0.5 mM, respectively. From this stock solution serial five-fold dilutions are prepared in DMSO, which are used in the assay. The respective inhibitor solution accounts for 1% of the assay volume. Thus, final inhibitor concentrations range from 200 μM to 2.5 nM or from 5 μM to 63 pM, respectively. After a preincubation of 30 min the reaction is started by adding 4-HPP to a final concentration of 0.1 mM. The reaction is allowed to proceed for 120 min at room temperature. The reaction is stopped by addition of 100 μl of 4.5 M phosphoric acid.
(§4) Activities are normalized by setting the uninhibited enzyme activity to 100%. IC50 values are calculated using non-linear regression.
(§5) The assay mixture can contain 150 mM potassium phosphate buffer pH 7.0, 50 mM L-ascorbic acid, 100 μM Catalase (Sigma-Aldrich), 1 μM FeSO4 and 0.2 units of purified HPPD enzyme in a total volume of 505 μl. […]
(§6) Inhibitors are dissolved in DMSO (dimethylsulfoxide) to a concentration of 0.5 mM. […] IC50 values are calculated using non-linear regression.
(§7) Using methods which are described in the above examples or well known in the art, purified, recombinant wildtype HPPD enzymes are characterized with respect to their kinetic properties and sensitivity towards HPPD inhibiting herbicides. Apparent michaelis constants (Km) and maximal reaction velocities (Vmax) are calculated by non-linear regression with the software GraphPad Prism 5 (GraphPad Software, La Jolla, USA) using a substrate inhibition model. […] Weighted means (by standard error) of Km and […] values are calculated from at least three independent experiments. […]

For assay [2], the system named is Lolium HPPD. Description: HPPD activity assay, Lolium HPPD. The format is biochemical. As for the experimental part: as §1, §2, §3, §4
(§8) The assay mixture can contain 150 mM potassium phosphate buffer pH 7.0, 50 mM L-ascorbic acid, 100 μM Catalase (Sigma-Aldrich), 1 μM FeSO4 and 0.2 units of purified HPPD enzyme in a total volume of 505 μl. 1 unit is defined as the amount of enzyme that is required to produce 1 nmol of HGA per minute at 20° C.
(§9) Inhibitors are dissolved in DMSO (dimethylsulfoxide) to a concentration of 0.5 mM. From this stock solution serial five-fold dilutions are prepared in DMSO, which are used in the assay. The respective inhibitor solution accounts for 1% of the assay volume. Thus, final inhibitor concentrations range from 5 μM to 320 pM, respectively. Activities are normalized by setting the uninhibited enzyme activity to 100%. IC50 values are calculated using non-linear regression.
as §7
(§10) Field performance of the HPPD enzyme, which is used as a herbicide tolerance trait, may depend not only on its lack of sensitivity towards HPPD inhibiting herbicides but also on its activity. To assess the potential performance of a herbicide tolerance trait a tolerance index (TI) is calculated using the following formula: […]

Assay [3] has as its system Poa HPPD. Description: HPPD activity assay, Poa HPPD. The format is biochemical. As for the experimental part: as §1, §2, §3, §4, §5, §6, §7
Assay [4] has as its system Alopecurus HPPD. Description: HPPD activity assay, Alopecurus HPPD. The format is biochemical. As for the experimental part:
as §1, §2, §3, §4, §5, §6, §7

Assay [5] addresses T1, Arabidopsis HPPD (SEQ ID: 53) (Arabidopsis thaliana, UniProt P93836).
T1 construct: His6 (N); made in house; host or cells: E. coli BL21 (DE3)
T1 sequence (P93836 1-445): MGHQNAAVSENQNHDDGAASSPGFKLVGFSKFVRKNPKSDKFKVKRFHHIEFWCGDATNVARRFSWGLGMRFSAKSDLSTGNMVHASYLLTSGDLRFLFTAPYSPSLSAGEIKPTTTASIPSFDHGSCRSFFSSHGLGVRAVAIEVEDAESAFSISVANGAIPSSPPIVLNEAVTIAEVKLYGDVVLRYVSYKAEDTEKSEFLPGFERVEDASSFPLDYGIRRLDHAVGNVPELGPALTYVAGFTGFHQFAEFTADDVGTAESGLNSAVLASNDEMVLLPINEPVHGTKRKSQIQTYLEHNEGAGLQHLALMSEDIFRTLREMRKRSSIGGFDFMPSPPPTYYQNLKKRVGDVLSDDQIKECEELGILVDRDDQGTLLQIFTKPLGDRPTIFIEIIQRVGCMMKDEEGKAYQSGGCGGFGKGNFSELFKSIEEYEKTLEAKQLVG
The experiment in a line: HPPD activity assay, Arabidopsis wild-type HPPD. It is filed as biochemical. On the set-up: key to Normalized tolerance index TI: tolerance index relative to Arabidopsis wild-type HPPD (= 1). How it is done: as §1, §2
(§11) Inhibitors are dissolved in DMSO (dimethylsulfoxide) to a concentration of 20 mM or 0.5 mM, respectively. From this stock solution serial five-fold dilutions are prepared in DMSO, which are used in the assay. The respective inhibitor solution accounts for 1% of the assay volume. […] After a preincubation of 30 min the reaction is started by adding 4-HPP to a final concentration of 0.1 mM. The reaction is allowed to proceed for 120 min at room temperature. The reaction is stopped by addition of 100 μl of 4.5 M phosphoric acid.
as §4, §8
Inhibitors are dissolved in DMSO (dimethylsulfoxide) to a concentration of 0.5 mM. From this stock solution serial five-fold dilutions are prepared in DMSO, which are used in the assay. The respective inhibitor solution accounts for 1% of the assay volume. […] Activities are normalized by setting the uninhibited enzyme activity to 100%. IC50 values are calculated using non-linear regression.
Using methods which are described in the above examples or well known in the art, purified, recombinant wildtype HPPD enzymes are characterized with respect to their kinetic properties and sensitivity towards HPPD inhibiting herbicides. Apparent michaelis constants (Km) and maximal reaction velocities (Vmax) are calculated by non-linear regression with the software GraphPad Prism 5 (GraphPad Software, La Jolla, USA) using a substrate inhibition model.
as §10
Easy comparison and ranking of each trait is enabled by normalizing tolerance indexes on Arabidopsis wild-type HPPD.

For assay [6], the system named is Sorghum HPPD. The experiment in a line: HPPD activity assay, Sorghum HPPD. It is filed as biochemical. As for the experimental part:
as §1, §2, §3, §4, §5, §6, §7

In assay [7] the test system is Avena HPPD. The experiment in a line: HPPD activity assay, Avena HPPD. The format is biochemical, Avena sativa. How it is done: as §1, §2, §3, §4, §8, §9, §7, §10
In assay [8] the target is T2, Arabidopsis HPPD variant M335H, P336A (Arabidopsis thaliana, UniProt P93836, M335H/P336A).
T2 construct: PCR-based site directed mutagenesis of pEXP5-NT/TOPO®-AtHPPD is done; His6 (N); made in house; host or cells: E. coli BL21 (DE3)
T2 sequence (P93836 whole entry M335H/P336A): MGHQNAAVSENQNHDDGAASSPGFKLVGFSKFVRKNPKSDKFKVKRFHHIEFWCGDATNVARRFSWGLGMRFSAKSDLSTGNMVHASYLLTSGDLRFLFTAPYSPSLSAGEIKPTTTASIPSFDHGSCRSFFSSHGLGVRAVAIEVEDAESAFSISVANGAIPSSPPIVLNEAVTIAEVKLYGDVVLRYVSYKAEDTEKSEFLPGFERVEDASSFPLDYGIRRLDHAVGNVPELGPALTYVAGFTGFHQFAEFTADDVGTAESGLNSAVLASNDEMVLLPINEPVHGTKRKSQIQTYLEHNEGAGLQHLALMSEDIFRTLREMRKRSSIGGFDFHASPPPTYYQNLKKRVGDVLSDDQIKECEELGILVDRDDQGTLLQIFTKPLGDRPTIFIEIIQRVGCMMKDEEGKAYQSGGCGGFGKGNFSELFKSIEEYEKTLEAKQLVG
Description: HPPD activity assay, Arabidopsis HPPD mutant M335H, P336A. It is filed as biochemical. As for the experimental part:
as §1, §2, §11, §4, §8
Inhibitors are dissolved in DMSO (dimethylsulfoxide) to a concentration of 0.5 mM. […] IC50 values are calculated using non-linear regression. […]
Purified, mutant HPPD enzymes are obtained by the methods described above. […] Apparent michaelis constants (Km) and maximal reaction velocities (Vmax) are calculated by non-linear regression with the software GraphPad Prism 5 (GraphPad Software, La Jolla, USA) using a substrate inhibition model.
Field performance of the optimized HPPD enzyme, which is used as a herbicide tolerance trait may depend not only on its lack of sensitivity towards HPPD inhibiting herbicides but also on its activity. To assess the potential performance of a herbicide tolerance trait a tolerance index (TI) is calculated using the following formula: […]

As for `CC1CC(c2c(Cl)ccc(C3=C(O)c4ncccc4CS3(=O)=O)c2Cl)=NO1` (stereo not drawn) [Inhibitor 4, 7-[2,4-dichloro-3-(5-methyl-4,5-dihydroisoxazol-3-yl)phenyl]-6,6-dioxo-5H-thiopyrano[4,3-b]pyridin-8-ol], the “Normalized tolerance index TI” value in assay [1] turned out to be 1.3; in assay [2], 4.5; in assay [3], 1.2; in assay [4], 3.5; in assay [5] (Arabidopsis HPPD Wildtype, Table 15) it was 1; in assay [5] (Arabidopsis HPPD, Table 12) it was 1. For the same compound, the “Normalized tolerance index TI” value in assay [6] stood at 3.7; in assay [7], 5.3; in assay [8], 7.4.

The values are drawn from US20140357487A1, “PLANTS HAVING INCREASED TOLERANCE TO HERBICIDES” (BASF SE, priority 2011, published 2014).
